According to ChEMBL document CHEMBL1201862, “PubChem BioAssay data set” (2004):
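48-hour exposure; five concentrations; linearly interpolated endpoints. Here, GI50 denotes the concentration required for 50% inhibition of growth.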 Active and inactive are the calls of the source. Rule as the data show it: active = GI50 up to about 1.1 µM and inactive = higher.

Key:
Assay in all cases: inhibition of tumour cell growth, NCI panel, 48 h
A498 = tested on: A498
NCI-H460 = tested on: NCI-H460
Malme-3M = tested on: Malme-3M
RPMI-8226 = tested on: RPMI-8226
BT-549 = tested on: BT-549
SNB-75 = tested on: SNB-75
ACHN = tested on: ACHN
LOX IMVI = tested on: LOX IMVI
SF-268 = tested on: SF-268
TK-10 = tested on: TK-10
UACC-257 = tested on: UACC-257
HCC 2998 = tested on: HCC 2998
OVCAR-5 = tested on: OVCAR-5
M14 = tested on: M14
HL-60 = tested on: HL-60
MDA-N = tested on: MDA-N
UO-31 = tested on: UO-31
786-0 = tested on: 786-0
U-251 = tested on: U-251
MOLT-4 = tested on: MOLT-4
Hs-578T = tested on: Hs-578T
SK-MEL-5 = tested on: SK-MEL-5
UACC-62 = tested on: UACC-62
OVCAR-3 = tested on: OVCAR-3
MCF7 = tested on: MCF7
CCRF-CEM = tested on: CCRF-CEM
COLO 205 = tested on: COLO 205
SNB-19 = tested on: SNB-19
SW-620 = tested on: SW-620
MDA-MB-435 = tested on: MDA-MB-435
NCI-H226 = tested on: NCI-H226
DU-145 = tested on: DU-145
OVCAR-8 = tested on: OVCAR-8
HCT-116 = tested on: HCT-116
MDA-MB-231 = tested on: MDA-MB-231
A549 = tested on: A549
NCI-H522 = tested on: NCI-H522
OVCAR-4 = tested on: OVCAR-4
SK-MEL-28 = tested on: SK-MEL-28
HCT-15 = tested on: HCT-15
NCI/ADR-RES = tested on: NCI/ADR-RES
PC-3 = tested on: PC-3
K562 = tested on: K562
EKVX = tested on: EKVX
SK-MEL-2 = tested on: SK-MEL-2
SF-539 = tested on: SF-539
SR = tested on: SR
KM12 = tested on: KM12
IGROV-1 = tested on: IGROV-1
T47D = tested on: T47D
HOP-92 = tested on: HOP-92
CAKI-1 = tested on: CAKI-1
RXF 393 = tested on: RXF 393
SN12C = tested on: SN12C
SF-295 = tested on: SF-295
SK-OV-3 = tested on: SK-OV-3
HOP-62 = tested on: HOP-62
HT-29 = tested on: HT-29
NCI-H23 = tested on: NCI-H23

CC(NNC(=O)c1cc[n+]([BH2-]C#N)cc1)c1ccc(Cl)cc1Cl (stereo not drawn)
GI50 (A498): > 100 µM (inactive) | GI50 (NCI-H460): 44.1 µM (inactive) | GI50 (Malme-3M): 43.9 µM (inactive) | GI50 (RPMI-8226): 17.6 µM (inactive) | GI50 (BT-549): 46.2 µM (inactive) | GI50 (SNB-75): 31.8 µM (inactive) | GI50 (ACHN): 42.7 µM (inactive) | GI50 (LOX IMVI): 29.2 µM (inactive) | GI50 (SF-268): 41.2 µM (inactive) | GI50 (TK-10): 48.6 µM (inactive) | GI50 (UACC-257): 42.1 µM (inactive) | GI50 (HCC 2998): 57.1 µM (inactive) | GI50 (OVCAR-5): 42.2 µM (inactive) | GI50 (M14): 42.4 µM (inactive) | GI50 (HL-60): 23.8 µM (inactive) | GI50 (MDA-N): > 100 µM (inactive) | GI50 (UO-31): 26.2 µM (inactive) | GI50 (786-0): 49.1 µM (inactive) | GI50 (U-251): 48.2 µM (inactive) | GI50 (MOLT-4): 17.5 µM (inactive) | GI50 (Hs-578T): 39.5 µM (inactive) | GI50 (SK-MEL-5): 23 µM (inactive) | GI50 (UACC-62): 55.8 µM (inactive) | GI50 (OVCAR-3): 25 µM (inactive) | GI50 (MCF7): 36 µM (inactive) | GI50 (CCRF-CEM): 33.3 µM (inactive) | GI50 (COLO 205): 60.7 µM (inactive) | GI50 (SNB-19): 41.4 µM (inactive) | GI50 (SW-620): 42.8 µM (inactive) | GI50 (MDA-MB-435): 42.1 µM (inactive) | GI50 (NCI-H226): 14.2 µM (inactive) | GI50 (DU-145): 68.5 µM (inactive) | GI50 (OVCAR-8): 31.5 µM (inactive) | GI50 (HCT-116): 22.5 µM (inactive) | GI50 (MDA-MB-231): 35 µM (inactive) | GI50 (A549): 37.2 µM (inactive) | GI50 (NCI-H522): 28.6 µM (inactive) | GI50 (OVCAR-4): 30.7 µM (inactive) | GI50 (SK-MEL-28): 44.5 µM (inactive) | GI50 (HCT-15): 44.8 µM | GI50 (NCI/ADR-RES): 31.6 µM (inactive) | GI50 (PC-3): 33.6 µM (inactive) | GI50 (K562): 24.2 µM (inactive) | GI50 (EKVX): 24.5 µM (inactive) | GI50 (SK-MEL-2): 49.5 µM (inactive) | GI50 (SF-539): 53.7 µM (inactive) | GI50 (SR): 30.9 µM (inactive) | GI50 (KM12): 34.8 µM (inactive) | GI50 (IGROV-1): 51.8 µM (inactive) | GI50 (T47D): 34.5 µM (inactive) | GI50 (HOP-92): 37.4 µM (inactive) | GI50 (CAKI-1): 68.2 µM (inactive) | GI50 (RXF 393): 43.3 µM (inactive) | GI50 (SN12C): > 100 µM (inactive) | GI50 (SF-295): 32.5 µM (inactive)

CC(=O)OCCOCn1cnc2c(Cl)nc(Cl)nc21
GI50 (A498): 32.2 µM (inactive) | GI50 (NCI-H460): 18.5 µM (inactive) | GI50 (Malme-3M): 15.8 µM (inactive) | GI50 (RPMI-8226): 5.97 µM (inactive) | GI50 (BT-549): 18.7 µM (inactive) | GI50 (SNB-75): 21.5 µM (inactive) | GI50 (ACHN): 16.5 µM (inactive) | GI50 (LOX IMVI): 4.3 µM (inactive) | GI50 (SF-268): 17.9 µM (inactive) | GI50 (TK-10): 39.4 µM (inactive) | GI50 (UACC-257): 17.1 µM (inactive) | GI50 (HCC 2998): 12.2 µM (inactive) | GI50 (OVCAR-5): 19.1 µM (inactive) | GI50 (M14): 17.1 µM (inactive) | GI50 (HL-60): 2.65 µM (inactive) | GI50 (MDA-N): 17.4 µM (inactive) | GI50 (UO-31): 21.2 µM (inactive) | GI50 (786-0): 21.4 µM (inactive) | GI50 (U-251): 15 µM (inactive) | GI50 (MOLT-4): 19.2 µM (inactive) | GI50 (Hs-578T): 18.7 µM (inactive) | GI50 (SK-MEL-5): 18.1 µM (inactive) | GI50 (UACC-62): 16.1 µM (inactive) | GI50 (OVCAR-3): 14 µM (inactive) | GI50 (MCF7): > 10 µM (inactive) | GI50 (CCRF-CEM): 6.37 µM (inactive) | GI50 (COLO 205): 18.6 µM (inactive) | GI50 (SNB-19): 31.2 µM (inactive) | GI50 (SW-620): 12.4 µM (inactive) | GI50 (MDA-MB-435): 17.3 µM (inactive) | GI50 (NCI-H226): 19.2 µM (inactive) | GI50 (DU-145): 19.5 µM (inactive) | GI50 (SK-OV-3): > 10 µM (inactive) | GI50 (OVCAR-8): 20.8 µM (inactive) | GI50 (HCT-116): 18.2 µM (inactive) | GI50 (MDA-MB-231): 15.3 µM (inactive) | GI50 (A549): > 10 µM (inactive) | GI50 (NCI-H522): 2.05 µM (inactive) | GI50 (OVCAR-4): 19.1 µM (inactive) | GI50 (HCT-15): 3.64 µM | GI50 (NCI/ADR-RES): 24.1 µM (inactive) | GI50 (PC-3): 17 µM (inactive) | GI50 (K562): 2.44 µM (inactive) | GI50 (EKVX): 2.84 µM (inactive) | GI50 (SK-MEL-2): 22.3 µM (inactive) | GI50 (HOP-62): 17.7 µM (inactive) | GI50 (SF-539): > 10 µM (inactive) | GI50 (SR): 3.87 µM (inactive) | GI50 (KM12): 18.2 µM (inactive) | GI50 (IGROV-1): 14.3 µM (inactive) | GI50 (T47D): 10 µM (inactive) | GI50 (HT-29): 15.4 µM (inactive) | GI50 (NCI-H23): 18.7 µM (inactive) | GI50 (HOP-92): 1.67 µM (inactive) | GI50 (CAKI-1): 0.275 µM (active) | GI50 (RXF 393): > 10 µM (inactive) | GI50 (SN12C): 18.5 µM (inactive) | GI50 (SF-295): > 10 µM (inactive)
